Measured values as given in patent US20230416299A1, “COMPOUND AND METHOD FOR THE TREATMENT AND DIAGNOSIS OF NEURODEGENERATIVE CONDITIONS” (Swansea University, priority 2013, published 2023).

Experiments:
[1] = tested on: Nur-related factor 1 (Nurrl)/retinoid X receptor (Rxr) heterodimers; conditions: SN4741 cells, 10 μM
Experimental: (§1) LC-ESI-MS on the LTQ-Orbitrap LC-ESI-MS and LC-ESI-MSn was performed using an Ultimate 3000 HPLC system (Dionex, Surrey, UK) linked to the ESI source of a LTQ-Orbitrap XL or LTQ-Orbitrap Velos (Thermo Fisher, San Jose, CA) mass spectrometer. Luciferase Reporter Assay. The ability of oxysterols and their acidic metabolites to activate several nuclear receptors i.e. Lxrα and β, Fxr, Vdr, Nurrl was tested in luciferase assays. Transient transfection studies were performed in the mouse neuronal cell line SN4741. This cell line was selected as the oxysterols and acidic metabolites tested were initially identified in CSF. Cells were plated in 24-well plates (5×10^5 cells/well) 24 hr before transfection and transfected with 1 μg of plasmid DNA/well complexed with 2 μL of Lipofectamine 2000 (Invitrogen). Cells were transfected with 400 ng of a Lxr-, Fxr-, Vdr- or Nurrl−responsive luciferase reporter construct, and 200 ng of Lxrα, Lxrβ, Fxr, Vdr or Nurrl. A reporter gene expressing the Renilla luciferase (pRL-TK, Promega) was co-transfected in all experiments as an internal control for normalization of transfection efficiency. After a 12 h incubation, the lipid/DNA mix was replaced with fresh 2.5% serum medium containing vehicle or appropriate ligand (10 μM), as specified in each experiment. […]

[2] = tested on: mouse E11.5 brain primary cultures; assay: Mouse E11.5 brain primary cultures (Islet1+, active caspase 3+, BrdU, Nkx6.1 counts); format: cell-based
Experimental: Primary Brain Cultures. Brains from E11.5 mice were manually dissected, plated on poly-D-lysine (150,000 cells/cm2) and grown in serum-free N2 media consisting of 1:1 mixture of F12 and DMEM with 10 ng/mL insulin, 100 μg/mL apo-transferrin, 100 μM putrescine, 20 nM progesterone, 30 nM selenium, 6 mg/mL glucose, and 1 mg/mL BSA. Cells were treated for 3 days in vitro (DIV) with the compounds of interest, fixed with 4% PFA and processed for staining using appropriate antibodies.
For BrdU analysis, cells were treated with BrdU one hour after plating and media was replaced with fresh medium after 16 h. After a further 2 days in culture, cells were treated for 30 min with 2N HCl and then immunocytochemistry was performed to evaluate the number of double BrdU+;Islet1+ cells (a measure of motor neuron neurogenesis). Hoechst staining was performed by permeabilizing cells with a 0.3% Triton-X 100/PBS solution for 5 min followed by incubation with Hoechst 33258 (Sigma) for 10 min.
Antibodies and Detection Procedures. Cells were fixed in 4% PFA, washed in PBS and blocked in 5% normal goat serum/PBS for 1 h at room temperature. Primary antibodies were diluted in PBS (pH 7.4), 0.3% Triton X-100, 1% BSA and incubations were carried out overnight at +4° C. or at room temperature for 2 h. The antibodies used were anti-: BrdU (1:400; Abeam), Islet-1 (1:100; Developmental Studies Hybridoma Bank), cleaved caspase-3 (Asp175) (1:100; Cell Signaling Technology), tyrosine hydroxylase (TH;1:1000; Pel-Freeze) GABA (1:1,000; Sigma), Brn3a (1:250; Millipore), Nkx6.1 (1:200; Novus Biologicals), choline acetyltransferase (ChAT; 1:500; Millipore) and appropriate secondary antibodies (Jackson ImmunoResearch or Alexa). Cells positive for the corresponding marker were counted directly at the microscope at a magnification of 20 x. Cells were counted in every well, in eight consecutive fields (going from one side of the well to the other, passing through the center), in three different wells per experiment and in three different experiments per condition. Random pictures of the wells were taken for every condition to document the result, and representative pictures were subsequently selected to represent the quantitative data. Photos were acquired with a Zeiss Axioplan microscope and a Hamamatsu camera C4742-95 using the Openlab software.

Lxrβ-LBD = target: T1, Lxrβ-LBD (Homo sapiens, UniProt P55055); assay: LanthaScreen TR-FRET Lxrβ coactivator assay; format: binding
T1 construct: purchased Invitrogen
T1 sequence (P55055 222-460 limits assumed): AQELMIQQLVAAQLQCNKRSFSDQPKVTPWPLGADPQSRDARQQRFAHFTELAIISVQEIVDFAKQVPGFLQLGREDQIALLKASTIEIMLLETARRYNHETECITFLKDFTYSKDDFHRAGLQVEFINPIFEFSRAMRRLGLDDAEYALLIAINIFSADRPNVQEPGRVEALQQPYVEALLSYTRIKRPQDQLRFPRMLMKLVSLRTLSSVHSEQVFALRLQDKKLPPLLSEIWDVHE
Source text: Lxrβ Ligand Binding Assay. For Lxrβ ligand binding activity measurement, the applicants used the LANTHASCREEN™ TR-FRET Lxrβ Coactivator Assay (Invitrogen). The assay uses a terbium (Tb)-labeled anti-GST antibody, a fluorescein-labeled coactivator peptide and the Lxrβ-LBD tagged with glutathione-S-transferase (GST). Binding of the agonist/ligand to Lxrβ-LBD causes a conformational change that result in an increase in the affinity of the Lxrβ for the coactivator peptide. The close proximity of the fluorescently labeled coactivator peptide to the Tb-labeled antibody causes an increase in the TR-FRET signal intensity. The TR-FRET ratio of 520/495 was calculated using a Victor multi label reader with an excitation wavelength of 340 nm and emission wavelengths of 520 nm and 495 nm. The activational capacity of potential ligands was tested in a […] polypropylene plate, following the manufacturer's protocol.

[3] = tested on: Abca1, Abcg1 and Srebf1 transcript levels; assay: Quantitative PCR of Lxr target genes in SN4741 cells; format: cell-based, mouse; conditions: SN4741 cells treated 3 h
Experimental: (§2) Quantitative PCR. Total RNA was extracted from SN4741 cells and zebrafish treated with the compounds of interest using the RNeasy Mini Kit (Qiagen), 1 μg was treated with RQ1 RNase-free DNase (Promega) and reverse transcribed using Superscript II Reverse Transcriptase (Invitrogen) and random primers (Invitrogen) (RT+ reaction). Parallel reactions without reverse transcriptase enzyme were done as a control (RT− reaction), and Sybergreen real-time quantitative PCR assays were performed. Expression levels were obtained by normalization with the value of the housekeeping gene encoding actin obtained for every sample in parallel assays.

[4] = tested on: Islet-1:GFP transgenic zebrafish embryos; format: in vivo; conditions: 10 μM in medium
Experimental: as §2
Zebrafish Strain and Mainrenance Zebrafish were raised on a 14/10 h day/night cycle and were kept at 28.5° C. Islet-1:GFP transgenic embryos were obtained via natural spawning and staged in hours or days post fertilization (hpf and dpf) according to Kimmel et al). Embryos older than 24 hpf were treated with 0.03% phenylthiourea (PTU) to inhibit pigmentation. MO injections were performed using splice site specific zebrafish 1xr MO. MO injected embryos were immediately dechorionated and transferred to a 96 well plate and exposed to dimethyl sulfoxide (DMSO) treated or ligand treated medium.
Compound Exposure. Islet-1:GFP embryos were collected by natural mating and immediately (at 1 cell stage) dechorionated and transferred to a 96 well plate. Each of the compounds tested were obtained as 10 mM stock and diluted in embryo medium to a final concentration of 10 μM, and 200 μL was added to each well. DMSO or propan-2-ol treated embryo medium was taken as control. Ligand solutions were replaced every 12 h with fresh ligand solution prepared in PTU treated embryo medium. Embryos were collected at 48 hpf, fixed for 4 h at room temperature with 4% paraformaldehyde and then washed and kept in PBST. Immunocytochemistry was performed using an anti-GFP antibody and fluorescence was viewed and photographed using a Zeiss Axioplan compound microscope and a Zeiss Axiocam digital camera.

Lxrβ = target: T2, Lxrβ (Homo sapiens, UniProt P55055); assay: Lxr-responsive luciferase reporter assay (Lxre + Lxrβ) in SN4741 neural cells; format: cell-based, mouse
T2 construct: expressed in transfected cells; host or cells: SN4741 mouse neuronal cell line
T2 sequence (P55055 1-460): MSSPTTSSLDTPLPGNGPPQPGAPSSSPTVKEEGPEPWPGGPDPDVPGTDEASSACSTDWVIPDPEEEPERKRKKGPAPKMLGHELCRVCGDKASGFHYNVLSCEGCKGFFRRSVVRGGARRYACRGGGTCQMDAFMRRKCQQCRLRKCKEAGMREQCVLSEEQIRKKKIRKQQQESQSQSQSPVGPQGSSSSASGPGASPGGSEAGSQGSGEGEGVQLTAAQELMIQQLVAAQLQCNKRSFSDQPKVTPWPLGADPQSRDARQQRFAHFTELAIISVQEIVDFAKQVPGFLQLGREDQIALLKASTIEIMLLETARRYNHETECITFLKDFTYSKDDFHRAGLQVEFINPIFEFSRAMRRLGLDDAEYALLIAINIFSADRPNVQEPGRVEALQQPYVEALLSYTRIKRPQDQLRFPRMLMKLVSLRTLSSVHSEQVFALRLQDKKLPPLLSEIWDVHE
Source text: (§3) Luciferase Reporter Assay.

Lxrα = target: T3, Lxrα (Homo sapiens, UniProt Q13133); assay: Lxr-responsive luciferase reporter assay (Lxre + Lxrα) in SN4741 neural cells; format: cell-based, mouse; conditions: 10 μM, 24 h
T3 construct: expressed in transfected cells; host or cells: SN4741 mouse neuronal cell line
T3 sequence (Q13133 1-447): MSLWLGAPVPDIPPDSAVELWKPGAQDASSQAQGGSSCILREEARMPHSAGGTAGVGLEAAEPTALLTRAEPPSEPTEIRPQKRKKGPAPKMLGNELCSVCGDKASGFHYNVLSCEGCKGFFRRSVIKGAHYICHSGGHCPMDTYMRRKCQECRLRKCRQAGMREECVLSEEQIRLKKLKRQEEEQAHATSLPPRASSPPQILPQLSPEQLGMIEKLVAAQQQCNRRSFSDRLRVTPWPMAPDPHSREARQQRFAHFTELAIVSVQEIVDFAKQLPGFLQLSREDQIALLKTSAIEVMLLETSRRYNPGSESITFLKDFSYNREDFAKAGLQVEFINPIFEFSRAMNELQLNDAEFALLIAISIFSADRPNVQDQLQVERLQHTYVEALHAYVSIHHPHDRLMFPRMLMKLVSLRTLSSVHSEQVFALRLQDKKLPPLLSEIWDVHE
Source text: as §3

Fxr = target: T4, Fxr (Homo sapiens, UniProt Q96RI1); assay: Fxr-responsive luciferase reporter assay (Fxre + Fxr) in SN4741 neural cells; format: cell-based, mouse; conditions: 24 h
T4 construct: expressed in transfected cells; host or cells: SN4741 mouse neuronal cell line
T4 sequence (Q96RI1 1-486): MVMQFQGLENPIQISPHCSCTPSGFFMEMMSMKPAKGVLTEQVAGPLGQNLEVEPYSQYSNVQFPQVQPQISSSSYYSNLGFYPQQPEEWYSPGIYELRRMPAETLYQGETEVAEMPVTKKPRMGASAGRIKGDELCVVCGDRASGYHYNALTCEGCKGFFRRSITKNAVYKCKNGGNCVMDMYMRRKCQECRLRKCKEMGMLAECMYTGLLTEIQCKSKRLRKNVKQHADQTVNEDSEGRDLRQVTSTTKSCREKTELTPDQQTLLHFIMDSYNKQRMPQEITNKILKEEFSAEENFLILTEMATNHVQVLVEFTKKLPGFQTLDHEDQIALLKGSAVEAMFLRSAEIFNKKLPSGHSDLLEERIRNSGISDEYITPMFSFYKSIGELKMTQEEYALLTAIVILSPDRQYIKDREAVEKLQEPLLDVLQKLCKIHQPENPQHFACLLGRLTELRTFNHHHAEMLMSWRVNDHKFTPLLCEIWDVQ
Experimental: as §1

CC1=C(/C=C/C(C)=C\C=C\C(C)=C\C(=O)O)C(C)(C)CCC1 [9-cis-RA, 9-cis-retinoic acid]
Activation of DR5 element luciferase reporter [1]: activated this reporter

CC(CCC[C@@H](C)[C@H]1CC[C@H]2[C@@H]3[C@@H](O)C=C4C[C@@H](O)CC[C@]4(C)[C@H]3CC[C@]12C)C(=O)O (stereo partly drawn) [3β,7β-diHCA, 3β,7β-dihydroxycholest-5-en-26-oic acid]
Concentration at which toxicity is initiated (active caspase-3+ cells) ([2]; mouse, E11.5 mouse brain primary cultures, 3 days): 1000 nM
Number of Islet1+ cells ([2]; wild type cultures, 3 DIV): caused the loss of Islet1+ cells in the cultures
Number of active caspase-3+ cells ([2]; wt cultures, 10 μM 3β,7α-diHCA, 3βH,7O-CA, 25-HC, low concentrations of 3β,7β-diHCA, 3β-HCA): increased the number of active caspase-3+ cells
Competitor concentration with significant difference (p<0.05) from 10 μM 3β,7α-diHCA alone in TR-FRET Lxrβ coactivator assay (Lxrβ-LBD; added to 10 μM 3β,7α-diHCA): ≥ 2 µM
Competition with 3β,7α-diHCA in TR-FRET Lxrβ coactivator assay (Lxrβ-LBD; increasing concentrations with 3β,7α-diHCA at its most potent concentration): the effect of 3β,7α-diHCA was reduced to that of the latter acids
Abca1, Abcg1 and Srebf1 transcript levels [3]: induced transcription, but to a lesser extent
Toxicity to zebrafish embryos [4]: deleterious toxic effect which impaired the survival of the fish
Lxrβ activation, luciferase activity (Lxrβ; SN4741 cells, 10 μM, 24 h): have the ability to activate both Lxrs
Lxrβ activational capacity in combination with 22R-HC (Lxrβ; acid 10 μM + 22R-HC 10 μM): No additive effect was observed
Lxrα activation, luciferase activity (Lxrα): have the ability to activate both Lxrs

C[C@H](CCC(=O)O)[C@H]1CC[C@H]2[C@@H]3CC=C4C[C@@H](O)CC[C@]4(C)[C@H]3CC[C@]12C [3βH-Δ^5-BA, 3β-hydroxychol-5-en-24-oic acid]
Fxr activation, luciferase activity (Fxr): also activated Fxr, but was less potent than CDCA
